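Following 48 hours of exposure in 96-well plates, responses at five concentrations were used to interpolate endpoints linearly. At the GI50, growth is halved. At the TGI there is no net growth.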 Some results are limits rather than exact numbers.

Some test systems named below: OVCAR-4 ovarian; BT-549 breast; A498 renal; NCI-H226 lung; SF-539 CNS; DU-145 prostate; NCI-H522 lung; MDA-MB-435; SK-OV-3 ovarian; OVCAR-8 ovarian.
Holding throughout (assay): inhibition of tumour cell growth, NCI panel, 48 h

With `Nc1ncnc2c1nc(Cl)n2C1OC(CO)C(O)C1O` (stereo not given), the TGI was over 100 µM with OVCAR-4 ovarian; over 100 µM with BT-549 breast; over 100 µM in the experiment with A498 renal; over 85.2 µM in the experiment on NCI-H226 lung; over 94.7 µM in the experiment on SF-539 CNS; over 93.3 µM with DU-145 prostate. The TGI in the experiment with NCI-H522 lung is over 95.3 µM; in the experiment on MDA-MB-435 it was over 100 µM; with SK-OV-3 ovarian, over 100 µM; with OVCAR-8 ovarian it was over 100 µM.

In the case of `COc1cccc(C2C(C#N)=C(N)Oc3cc4c(cc32)OCO4)c1` (stereo not given), the GI50 is 0.457 µM with OVCAR-4 ovarian; 0.0874 µM in the experiment with BT-549 breast; 0.0311 µM in the experiment on A498 renal; 0.0455 µM with NCI-H226 lung; 0.0401 µM in the experiment on SF-539 CNS; 0.0845 µM in the experiment with DU-145 prostate. For the same compound, the GI50 was 0.0185 µM with NCI-H522 lung, 0.0162 µM in the experiment with MDA-MB-435, 0.0508 µM in the experiment on SK-OV-3 ovarian and 0.0956 µM in the experiment with OVCAR-8 ovarian. Further, the TGI in the experiment with OVCAR-4 ovarian was over 100 µM; in the experiment with BT-549 breast it was 5 µM; with A498 renal, 3 µM; with NCI-H226 lung, 2.43 µM; in the experiment on SF-539 CNS, over 33.1 µM; with DU-145 prostate, 2.78 µM. Also, the TGI with NCI-H522 lung was 0.0715 µM; in the experiment on MDA-MB-435 it was 0.0829 µM; in the experiment with SK-OV-3 ovarian, 4.71 µM; with OVCAR-8 ovarian it was over 36.2 µM.

As to `OCCCCC#Cc1ccccc1C#Cc1ccc(C(F)(F)F)cc1`, the GI50 is 11.2 µM in the experiment on OVCAR-4 ovarian; 18 µM with BT-549 breast; 15 µM in the experiment with A498 renal; 18.7 µM in the experiment with NCI-H226 lung; 19.7 µM with SF-539 CNS; 15.8 µM in the experiment on DU-145 prostate. For the same compound, the GI50 was 16.4 µM with NCI-H522 lung, 16.3 µM with MDA-MB-435, 18.5 µM in the experiment on SK-OV-3 ovarian and 17.4 µM in the experiment with OVCAR-8 ovarian. The TGI in the experiment with OVCAR-4 ovarian came out at 23.9 µM; with BT-549 breast, 35.1 µM; in the experiment on A498 renal, 28.6 µM; in the experiment with NCI-H226 lung it was 34.1 µM; with SF-539 CNS, 37.2 µM; in the experiment with DU-145 prostate, 31.7 µM. For the same compound, the TGI in the experiment with NCI-H522 lung was 32 µM; in the experiment with MDA-MB-435, 31.8 µM; in the experiment on SK-OV-3 ovarian, 34 µM; with OVCAR-8 ovarian, 33.2 µM.

These data come from PubChem BioAssay (NCI).
